In data set [1] the test system is COLO 205. In words: Cytotoxicity against human COLO205 cells after 48 hrs by MTT assay. Format: functional, cell-based. To be noted: for IC50: COLO 205, 48 h. (Tetrazolium assays rely on reduction of a dye to a coloured formazan, in cell work by metabolically active cells.)
The subject of data set [2] is COLO 205. Nature of the data set: Induction of apoptosis in human COLO205 cells assessed as necrotic cells at IC50 after 24 hrs using Annexin-V-FITC staining by flow cytometer analysis relative to control. Format: functional. For orientation: Flow cytometry measures light scatter and fluorescence of single cells or particles in a stream.
The subject of data set [3] is COLO 205. In words: Induction of apoptosis in human COLO205 cells assessed as increase of Bax protein expression at IC50 after 48 hrs by Western blotting. Format: functional, cell-based. On the technique in general: Immunoblotting shows a protein as a band on a membrane.
For data set [4], the system named is COLO 205. In words: Induction of apoptosis in human COLO205 cells assessed as increase of p21 protein expression at IC50 after 48 hrs by Western blotting. Format: functional, cell-based.
In data set [5] the test system is COLO 205. Nature of the data set: Induction of apoptosis in human COLO205 cells assessed as activation of caspase-8 at IC50 after 48 hrs by Western blotting. Format: functional, cell-based.
For data set [6], the system named is COLO 205. Nature of the data set: Induction of apoptosis in human COLO205 cells assessed as increase of p53 protein expression at IC50 after 48 hrs by Western blotting. Format: functional, cell-based.
For data set [7], the system named is COLO 205. In words: Induction of apoptosis in human COLO205 cells assessed as viable cells at IC50 after 24 hrs using Annexin-V-FITC staining by flow cytometer analysis (reference value: 75.5%). Format: functional.
Data set [8] relates to COLO 205. In words: Induction of apoptosis in human COLO205 cells assessed as early apoptotic cells at IC50 after 48 hrs using Annexin-V-FITC staining by flow cytometer analysis (reference value: 0.3%). Format: functional.
Data set [9] relates to COLO 205. Nature of the data set: Induction of apoptosis in human COLO205 cells assessed as late apoptotic cells at IC50 after 48 hrs using Annexin-V-FITC staining by flow cytometer analysis (reference value: 6.5%). Format: functional.
The subject of data set [10] is COLO 205. In words: Induction of apoptosis in human COLO205 cells assessed as decrease of Bcl2 protein expression at IC50 after 48 hrs by Western blotting. Format: functional, cell-based.
Data set [11] can be described thus: Cytotoxicity against rat IEC-6 cells assessed as cell viability up to 100 uM after 24 to 48 hrs by MTT assay. Format: cell-based.
Data set [12] concerns COLO 205. Nature of the data set: Induction of apoptosis in human COLO205 cells assessed as increase of cytochrome-c relase at IC50 after 48 hrs by Western blotting. Format: functional, cell-based.
Data set [13] deals with COLO 205. Nature of the data set: Induction of apoptosis in human COLO205 cells assessed as activation of caspase-9 at IC50 after 48 hrs by Western blotting. Format: functional, cell-based.
The subject of data set [14] is COLO 205. Nature of the data set: Induction of apoptosis in human COLO205 cells assessed as cleaved procaspase-3 level at IC50 after 48 hrs by Western blotting. Format: functional, cell-based.
The subject of data set [15] is COLO 205. In words: Induction of apoptosis in human COLO205 cells assessed as early apoptotic cells at IC50 after 24 hrs using Annexin-V-FITC staining by flow cytometer analysis (reference value: 0.07%). Format: functional.
The subject of data set [16] is COLO 205. Nature of the data set: Induction of apoptosis in human COLO205 cells assessed as viable cells at IC50 after 48 hrs using Annexin-V-FITC staining by flow cytometer analysis (reference value: 65.8%). Format: functional.
Data set [17] concerns HepG2. In words: Cytotoxicity against human HepG2 cells up to 100 uM after 24 to 48 hrs by MTT assay. Format: functional, cell-based.
Data set [18] deals with COLO 205. In words: Induction of apoptosis in human COLO205 cells assessed as necrotic cells at IC50 after 48 hrs using Annexin-V-FITC staining by flow cytometer analysis (reference value: 0.5%). Format: functional.
Data set [19] concerns COLO 205. In words: Induction of apoptosis in human COLO205 cells assessed as cleaved PARP level at IC50 after 48 hrs by Western blotting. Format: functional, cell-based.
The subject of data set [20] is COLO 205. Nature of the data set: Induction of apoptosis in human COLO205 cells assessed as late apoptotic cells at IC50 after 24 hrs using Annexin-V-FITC staining by flow cytometer analysis (reference value: 0.07%). Format: functional.
The subject of data set [21] is COLO 205. Nature of the data set: Cytotoxicity against human COLO205 cells after 24 hrs by MTT assay. Format: functional, cell-based.
The test system of data set [22] is HepG2. In words: Cytotoxicity against human HepG2 cells. Format: functional.
In the next data set the test system is HeLa. In words: Cytotoxicity against human HeLa cells. Format: functional.
Data set [23] concerns HepG2. Nature of the data set: Induction of apoptosis in human HepG2 cells assessed as increase of cleaved PARP level at IC50 after 48 hrs by Western blotting. Format: functional, cell-based.
Data set [24] deals with HepG2. Nature of the data set: Induction of apoptosis in human HepG2 cells assessed as increase of cleaved caspase 3/9 level at IC50 after 48 hrs by Western blotting. Format: functional, cell-based.
For data set [25], the system named is HepG2. Nature of the data set: Induction of apoptosis in human HepG2 cells assessed as late apoptotic cells at IC50 after 48 hrs using Annexin-V-FITC staining by flow cytometer analysis (reference value: 0.5%). Format: functional.
The test system of data set [26] is HepG2. Nature of the data set: Cytotoxicity against human HepG2 cells after 48 hrs by MTT assay. Format: functional, cell-based. To be noted: HepG2, 48 h.
The subject of data set [27] is HepG2. In words: Induction of apoptosis in human HepG2 cells assessed as increase of p53 and p21 protein expression at IC50 after 48 hrs by Western blotting. Format: functional, cell-based.
Data set [28] deals with HepG2. In words: Induction of apoptosis in human HepG2 cells assessed as necrotic cells at IC50 after 48 hrs using Annexin-V-FITC staining by flow cytometer analysis (reference value: 1.5%). Format: functional.
Data set [29] has as its system HepG2. In words: Induction of apoptosis in human HepG2 cells assessed as viable cells at IC50 after 48 hrs using Annexin-V-FITC staining by flow cytometer analysis (reference value: 97.3%). Format: functional.
Data set [30] relates to HepG2. In words: Cytotoxicity against human HepG2 cells after 24 to 48 hrs by MTT assay. Format: functional, cell-based.
For data set [31], the system named is HepG2. Nature of the data set: Induction of apoptosis in human HepG2 cells assessed as increase of cytochrome-c relase at IC50 after 48 hrs by Western blotting. Format: functional, cell-based.
For data set [32], the system named is HepG2. Nature of the data set: Induction of apoptosis in human HepG2 cells assessed as decrease of Bcl2 protein expression at IC50 after 48 hrs by Western blotting. Format: functional, cell-based.
Data set [33] relates to HepG2. Nature of the data set: Induction of apoptosis in human HepG2 cells assessed as increase of Bax protein expression at IC50 after 48 hrs by Western blotting. Format: functional, cell-based.
Data set [34] deals with HepG2. Nature of the data set: Induction of apoptosis in human HepG2 cells assessed as early apoptotic cells at IC50 after 48 hrs using Annexin-V-FITC staining by flow cytometer analysis (reference value: 0.6%). Format: functional.

For nine compounds, Activity, IC50 and CC50 results are on record in ChEMBL document CHEMBL3259815, “Regioselective synthesis of polycyclic aza-oxa and aza-oxa-thia heteroarenes as Colo-205 and HepG2 carcinoma cells growth inhibitors” (Eur J Med Chem, 2014).

Molecules are shown by their SMILES. Values after ≈ are worked out from the molar mass of the structure shown. Active and inactive are the calls of the source. The calls are words filed in the database; no cut-off is given here.

For the compound `COc1ccc2c(c1)-c1oc(=O)c3c(N)n[nH]c3c1CCO2`, the Activity entry with COLO 205 [1] was “Dose-dependent effect”; with COLO 205 [2] it was 0.2%; in the data set on COLO 205 [7] it was 33.6%; in the data set with COLO 205 [8], 0.3%; in the data set on COLO 205 [9], 7.7%; in [11] it was “Non-toxic”. In addition, the Activity with COLO 205 [15] is reported as 16.7%; in the data set with COLO 205 [16] it was 49.3%; in the data set on COLO 205 [18], 3%; in the data set with COLO 205 [20], 9%. Moreover, it took 40 µM to reach half-maximal inhibition in the data set with COLO 205 [1] (IC50). Moreover, the result in the data set with COLO 205 [3], with COLO 205 [4], in the data set on COLO 205 [10], in the data set with COLO 205 [12], in the data set on COLO 205 [13] and in the data set on COLO 205 [14] was Active. The result in the data set on COLO 205 [19] was Active. For the same compound, the result in the data set with COLO 205 [5], in the data set on COLO 205 [6], in the data set on HepG2 [17] and with COLO 205 [21] was inactive.
As for `CC(=O)c1c(O)c2ccc3ccccc3c2oc1=O`, the CC50 in the data set with HepG2 [22] and in the data set with HeLa was 6.87 µg/mL (≈ 27 µM) in each case.
As to `Nc1n[nH]c2c1C(=O)NN=C1c3cc(Cl)ccc3SCC12` (centres undefined), the Activity result in data set [11] is “Non-toxic”. Further, in the data set with HepG2 [17], the outcome was inactive.
Turning to `Cc1cc2c(cc1C)-c1oc(=O)c3c(N)n[nH]c3c1CCO2`, the Activity result is “Dose-dependent effect” in the data set on COLO 205 [1]; 0.7% with COLO 205 [2]; 50.6% in the data set on COLO 205 [7]; 0.1% with COLO 205 [8]; 4% in the data set on COLO 205 [9]; “Non-toxic” in data set [11]. Further, the Activity with COLO 205 [15] was 9.4%; with COLO 205 [16], 63.5%; in the data set with COLO 205 [18] it was 7.5%; in the data set with COLO 205 [20], 4.3%. For the same compound, in the data set with COLO 205 [1], the IC50 was determined as 60 µM. The result in the data set on COLO 205 [3], in the data set on COLO 205 [4], in the data set with COLO 205 [10], with COLO 205 [12], in the data set on COLO 205 [13] and in the data set on COLO 205 [14] was Active. Besides, the outcome in the data set on COLO 205 [19] was Active. For the same compound, the outcome in the data set on COLO 205 [5], in the data set with COLO 205 [6], in the data set on HepG2 [17] and in the data set on COLO 205 [21] was inactive.
`Nc1n[nH]c2c3c(oc(=O)c12)-c1ccc2ccccc2c1OCC3`: the Activity entry was “Dose-dependent effect” in the data set on COLO 205 [1]; 1.7% in the data set with COLO 205 [2]; 54.7% in the data set on COLO 205 [7]; 0.2% in the data set with COLO 205 [8]; 8.6% in the data set on COLO 205 [9]; “Non-toxic” in data set [11]. The Activity in the data set on COLO 205 [15] is listed as 5.5%; with COLO 205 [16], 50.7%; with COLO 205 [18] it was 7%; in the data set on COLO 205 [20], 7.5%. The compound also came in with an IC50 with COLO 205 [1] of 20 µM. The outcome with COLO 205 [3], in the data set with COLO 205 [4], with COLO 205 [10], in the data set with COLO 205 [12], in the data set with COLO 205 [13] and in the data set with COLO 205 [14] was Active. In addition, the outcome in the data set with COLO 205 [19] was Active. Also, the result in the data set with COLO 205 [5], in the data set with COLO 205 [6] and in the data set on COLO 205 [21] was inactive.
For the compound `Nc1n[nH]c2c1C(=O)NN=C1c3ccccc3OCCC12` (centres undefined), the result in the data set on HepG2 [23], in the data set on HepG2 [24], with HepG2 [27], in the data set on HepG2 [31], in the data set on HepG2 [32] and with HepG2 [33] was Active. Further, the Activity in the data set with HepG2 [25] was 7.6%; with HepG2 [28], 6.7%; in data set [11] it was “Non-toxic”; in the data set with HepG2 [29] it was 74.5%; in the data set on HepG2 [30], “Dose-dependent effect”; in the data set with HepG2 [34], 11.2%. Further, the IC50 in the data set on HepG2 [26] turned out to be 60 µM.
Take `Nc1n[nH]c2c3c(oc(=O)c12)-c1ccccc1OCC3`: the result in the data set on HepG2 [23], with HepG2 [24], with HepG2 [27], in the data set on HepG2 [31], in the data set with HepG2 [32] and in the data set on HepG2 [33] was Active. Besides, the Activity in the data set on HepG2 [25] was 9.2%; in the data set on HepG2 [28], 4.6%; in [11] it was “Non-toxic”; in the data set on HepG2 [29] it was 70.4%; in the data set with HepG2 [30] it was “Dose-dependent effect”; in the data set with HepG2 [34] it was 15.8%. In addition, inhibition in the data set with HepG2 [26] was half-maximal at 80 µM (IC50).
Turning to `Nc1n[nH]c2c3c(oc(=O)c12)-c1cc(Cl)ccc1SC3`, the Activity entry in data set [11] is reported as “Non-toxic”. Also, the outcome in the data set with HepG2 [17] was inactive.
As for `Nc1n[nH]c2c3c(oc(=O)c12)-c1ccccc1SC3`, the Activity result in data set [11] is recorded as “Non-toxic”. In the data set with HepG2 [17], the outcome was inactive.

In general, IC50 refers to the concentration that gives 50% inhibition. The term CC50 denotes the concentration giving 50% cytotoxicity. Higher therefore signals lower toxicity to the cells.
